Laboratory results published in patent publication US12234231B2, “EIF4E inhibitors and uses thereof” (PIC Therapeutics, Inc., priority 2021, dated 2025).

Biological target: T1, Human eIF4E (aa 28-217) (Homo sapiens, UniProt P06730)
T1 construct: Human eIF4E (aa 28-217) with a C-terminal His-tag; made in house
Experiment: Human eIF4E/4G2 binding assay (TR-FRET)
Conditions: purified eIF4E with biotin labeled 4G2 peptide, 4 hours preincubation at room temperature
Method: Example 3. Compound Testing in Human eIF4E/4G2 Binding Assay
1004461 Human eIF4E (aa 28-217) with a C-terminal His-tag was expressed in E. coli in inclusion bodies. The protein was solubilized with 8 M urea and purified under denaturing conditions using nickel-charged HisTrap HP columns (GE Healthcare). The purified protein was then refolded by diluting in 20 mM Hepes pH 7.0, 0.5 M NaCl, 1 mM DTT, 1 mM EDTA, 0.5 M arginine plus 6 M urea, and then dialyzing overnight into the same buffer without the urea. The protein was further dialyzed into 20 mM Hepes, pH 6.5, 50 mM NaCl, 1 mM EDTA, 1 mM DTT, and concentrated using Hitrap SP sepharose FF columns (GE Healthcare). The concentrated protein was dialyzed into 20 mM Hepes, pH 7.0, 0.5M NaCl, 5 mM DTT and 10% glycerol, and stored at −80° C. until use.
Test compounds (3.43 mM stock in DMSO) were diluted 2-fold in series in DMSO (10 concentration points). Compound solutions (1.2 μl/well) were added into black 384-well polypropylene microplates (Matrix, Thermal Scientific). Twenty-two microliters per well of Assay Buffer (50 mM NaPi, pH 6.5, 50 mM KCl, 1 mM DTT and 0.5 mg/ml gamma globulin) and eight microliters per well of 82.5 nM purified eIF4E in Assay Buffer were added. The samples were incubated at room temperature (20-23° C.) for 4 hours. Biotin labeled 4G2 peptide (Ac-Lys-Gln-Tyr-Asp-Arg-Glu-Phe-Leu-Leu-Asp-Phe-Gln-Phe-Met-Pro-Lys(Aha-Bio)-NH2, 1.75 μM stock in DMSO) was diluted to 0.14 μM in Assay Buffer (without DTT) and 5 μl/well was added. The samples were incubated at room temperature for 20 min. Five microliters per well of 6.4 nM Eu-streptavidin (Eu-SA, Perkin Elmer) and 80 nM Allophycocyanin (APC)-anti His antibody (Columbia Biosciences) in Assay Buffer (without DTT) were then added and the samples were incubated at room temperature for 20 min.
Assay signals were monitored by reading excitation at 340 nm and emission fluorescence at 615 nm and 665 nm on an Envision reader (Perkin Elmer). Normalized TR-FRET (time-resolved fluorescence resonance energy transfer) assay signal (Rn) was calculated by the formula: Rn=[(A−Ba−C×D)/(D−Bd)]×(Dc−Bd) • Where A is the fluorescence intensity of the sample at 665 nm, • D is the fluorescence intensity of the sample at 615 nm, • Ba and Bd are plate backgrounds at 665 nm and 615 nm, respectively, • Dc is the fluorescence intensity of 0.78 nM Eu-SA in the assay buffer at 615 nm
The cross-talk factor (C) is determined by the following formula: C=(Ac−Ba)/(Dc−Bd) Where Ac is the fluorescence intensity of 0.78 nM Eu-SA in the assay buffer at 665 nm.
IC50 values were calculated using xLFit program (IDBS). Table 2 below lists EC50 of some compounds, wherein A represents IC50≤0.5 μM; B represents 0.5 uM<IC50≤1 μM; and C represents IC50>1 μM.

T1 sequence (P06730 28-217): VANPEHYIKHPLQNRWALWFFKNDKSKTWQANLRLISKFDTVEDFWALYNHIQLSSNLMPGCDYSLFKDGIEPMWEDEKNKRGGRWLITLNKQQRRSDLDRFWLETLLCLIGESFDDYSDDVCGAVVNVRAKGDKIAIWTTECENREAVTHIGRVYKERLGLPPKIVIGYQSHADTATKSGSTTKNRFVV

SMILES	IC50
COCCOc1ccc(-c2nc(Nc3ncc(-c4cccs4)cc3C(=O)O)sc2CC(C)C)cc1F [I-30]	0.5 to 1 µM
CNCCNC(=O)c1cc(-c2cccs2)cnc1Nc1nc(-c2ccc(OCCOC)c(F)c2)c(CC(C)C)s1 [I-56, 2-((4-(3-fluoro-4-(2-methoxyethoxy)phenyl)-5-isobutylthiazol-2-yl)amino)-N-(2-(methylamino)ethyl)-5-(thiophen-2-yl)nicotinamide]	> 1 µM
COCCOc1ccc(-c2nc(Nc3cnc(-c4cccs4)cc3C(=O)O)sc2Cc2ccccc2)cc1F [I-63]	≤ 0.5 µM
COCCOc1cc(-c2nc(Nc3ncc(-c4cccs4)cc3C(=O)O)sc2CC(C)(C)C)ccc1Cl [I-95]	≤ 0.5 µM
